“And” between values parts separate entries of the source, which are not always exact repeats. Equal values may be shown once.
How the values were obtained:
Format in all cases: functional
Mus musculus [1] = organism: Mus musculus; test: Optimal Dose (OD) which cause maximum increase in the life span, after chronic injection at log (1/C).
Mus musculus [2] = organism: Mus musculus; test: Optimal Dose (OD) which cause maximum increase in the life span, after singular injection at log (1/C).
Mus musculus [3] = organism: Mus musculus; test: Minimum Effective Dose (MED) which cause 40% increase in life span, after chronic injection at log (1/C).
Mus musculus [4] = organism: Mus musculus; test: Minimum Effective Dose (MED) which cause 40% increase in life span, after singular injection at log (1/C).
[5] = Compound was evaluated for the Anti-fighting behavior.; set-up: scale not given here
[6] = Evaluation for the Anti-pentylenetetrazole effect.; set-up: unit not given here

CCC1=C(N2CC2)C(=O)C(CC)=C(N2CC2)C1=O
OD (Mus musculus [1]): 5.09 | OD (Mus musculus [2]): 4.79 | MED (Mus musculus [3]): 5.46 | MED (Mus musculus [4]): 4.94

COC(CO)C1=C(N2CC2)C(=O)C(C)=C(N2CC2)C1=O (configuration not stated)
OD (Mus musculus [1]): 5.75 | OD (Mus musculus [2]): 5.27 | MED (Mus musculus [3]): 6.9 | MED (Mus musculus [4]): 6.05

CC1=C(N2CC2)C(=O)C(CCCc2ccccc2)=C(N2CC2)C1=O
OD (Mus musculus [1]): 4.21 | OD (Mus musculus [2]): 3.6 | MED (Mus musculus [3]): 4.47 | MED (Mus musculus [4]): 3.93

CN(C)C(=O)OCCC1=C(N2CC2)C(=O)C(CCOC(=O)N(C)C)=C(N2CC2)C1=O
OD (Mus musculus [1]): 4.85 | OD (Mus musculus [2]): 4.62 | MED (Mus musculus [3]): 5.16

CC1=C(N2CC2)C(=O)C(C)=C(N2CC2)C1=O
OD (Mus musculus [1]): 5.36 | OD (Mus musculus [2]): 4.79 | MED (Mus musculus [3]): 5.66 | MED (Mus musculus [4]): 5.36

CC1=C(N2CC2)C(=O)C(CCOC(N)=O)=C(N2CC2)C1=O
OD (Mus musculus [1]): 5.75 | OD (Mus musculus [2]): 5.46 | MED (Mus musculus [3]): 6.21 | MED (Mus musculus [4]): 5.83

CCC1=C(N2CC2)C(=O)C(C)=C(N2CC2)C1=O
OD (Mus musculus [1]): 5.37 | OD (Mus musculus [2]): 4.52 | MED (Mus musculus [3]): 5.86 | MED (Mus musculus [4]): 5.16

CC1=C(N2CC2)C(=O)C(CCO)=C(N2CC2)C1=O
OD (Mus musculus [1]): 5.79 | OD (Mus musculus [2]): 5.25 | MED (Mus musculus [3]): 6.39 | MED (Mus musculus [4]): 5.89

COCCC1=C(N2CC2)C(=O)C(C)=C(N2CC2)C1=O
OD (Mus musculus [1]): 5.42 | OD (Mus musculus [2]): 5.12 | MED (Mus musculus [3]): 5.57 | MED (Mus musculus [4]): 5.19

CC1=C(N2CC2)C(=O)C(C(C)C)=C(N2CC2)C1=O
OD (Mus musculus [1]): 5.21 | OD (Mus musculus [2]): 4.69 | MED (Mus musculus [3]): 5.6 | MED (Mus musculus [4]): 4.96

CCC1=C(N2CC2)C(=O)C(C(COC(N)=O)OC)=C(N2CC2)C1=O (configuration not stated)
OD (Mus musculus [1]): 5.22 | OD (Mus musculus [2]): 4.92 | MED (Mus musculus [3]): 6.16 | MED (Mus musculus [4]): 5.62

CCCC1=C(N2CC2)C(=O)C(CCC)=C(N2CC2)C1=O
OD (Mus musculus [1]): 4.44 | OD (Mus musculus [2]): 4.14 | MED (Mus musculus [3]): 4.92 | MED (Mus musculus [4]): 4.32

CC1=C(N2CC2)C(=O)C(COc2ccccc2)=C(N2CC2)C1=O
OD (Mus musculus [1]): 4.71 | OD (Mus musculus [2]): 3.89 | MED (Mus musculus [3]): 5.15 | MED (Mus musculus [4]): 4.68

CCC(OC)C1=C(N2CC2)C(=O)C(C)=C(N2CC2)C1=O (configuration not stated)
OD (Mus musculus [1]): 5.33 | OD (Mus musculus [2]): 4.84 | MED (Mus musculus [3]): 5.68 | MED (Mus musculus [4]): 5.26

CC1=C(N2CC2)C(=O)C(N2CC2)=C(N2CC2)C1=O
OD (Mus musculus [1]): 6.21 | OD (Mus musculus [2]): 5.69 | MED (Mus musculus [3]): 6.77 | MED (Mus musculus [4]): 6.54

CCOC(COC(N)=O)C1=C(N2CC2)C(=O)C(CC)=C(N2CC2)C1=O (configuration not stated)
OD (Mus musculus [1]): 5.24 | OD (Mus musculus [2]): 4.64 | MED (Mus musculus [3]): 5.76 | MED (Mus musculus [4]): 5.4

CCOC(COC(N)=O)C1=C(N2CC2)C(=O)C(C)=C(N2CC2)C1=O (configuration not stated)
OD (Mus musculus [1]): 5.22 | OD (Mus musculus [2]): 4.62 | MED (Mus musculus [3]): 6.18 | MED (Mus musculus [4]): 5.53

CC1=C(N2CC2)C(=O)C(C(C)COC(N)=O)=C(N2CC2)C1=O (configuration not stated)
OD (Mus musculus [1]): 5.71 | OD (Mus musculus [2]): 5.31 | MED (Mus musculus [3]): 6.41 | MED (Mus musculus [4]): 5.93

CC1=C(N2CC2)C(=O)C(CC(C)OC(N)=O)=C(N2CC2)C1=O (configuration not stated)
OD (Mus musculus [1]): 5.79 | OD (Mus musculus [2]): 5.18 | MED (Mus musculus [3]): 6.14 | MED (Mus musculus [4]): 5.86

O=C1C(CCO)=C(N2CC2)C(=O)C(CCO)=C1N1CC1
OD (Mus musculus [1]): 6.05 | OD (Mus musculus [2]): 5.6 | MED (Mus musculus [3]): 6.54 | MED (Mus musculus [4]): 5.93

CC1=C(N2CC2)C(=O)C(CCOC(=O)N(C)C)=C(N2CC2)C1=O
OD (Mus musculus [2]): 4.84 | MED (Mus musculus [4]): 5.09

CCCCCC1=C(N2CC2)C(=O)C(CCCCC)=C(N2CC2)C1=O
OD (Mus musculus [1]): 4.52 | OD (Mus musculus [2]): 3.62 | MED (Mus musculus [3]): 4.63 | MED (Mus musculus [4]): 4.07

CC1=C(N2CC2)C(=O)C(CCCOC(N)=O)=C(N2CC2)C1=O
OD (Mus musculus [1]): 5.93 | OD (Mus musculus [2]): 5.48 | MED (Mus musculus [3]): 6.18 | MED (Mus musculus [4]): 5.55

CC1=C(N2CC2)C(=O)C(Cc2ccccc2)=C(N2CC2)C1=O
OD (Mus musculus [1]): 4.69 | OD (Mus musculus [2]): 4.26 | MED (Mus musculus [3]): 4.85 | MED (Mus musculus [4]): 4.74

COC1=C(N2CC2)C(=O)C(OC)=C(N2CC2)C1=O
OD (Mus musculus [1]): 5.17 | OD (Mus musculus [2]): 4.32 | MED (Mus musculus [3]): 5.59 | MED (Mus musculus [4]): 4.81

CC(=O)OCCC1=C(N2CC2)C(=O)C(C)=C(N2CC2)C1=O
OD (Mus musculus [1]): 5.78 | MED (Mus musculus [3]): 5.78

CNC(=O)CN1C(=O)CN=C(c2ccccc2)c2cc([N+](=O)[O-])ccc21
Anti-fighting behaviour [5]: 4.55 | Anti-pent effect [6]: 5.29

CN1C(=O)CN=C(c2ccccc2F)c2cc(Cl)ccc21
Anti-fighting behaviour [5]: 4.78 | Anti-pent effect [6]: 5.88

CSc1ccc2c(c1)C(c1ccccc1)=NCC(=O)N2
Anti-fighting behaviour [5]: 4.15 | Anti-pent effect [6]: 4.15

O=C1CN=C(c2ccccc2)c2cc(Br)ccc2N1
Anti-fighting behaviour [5]: 4.2 | Anti-pent effect [6]: 5.2

COCCOC(COC(N)=O)C1=C(N2CC2)C(=O)C(C)=C(N2CC2)C1=O (configuration not stated)
OD (Mus musculus [1]): 5.39 | OD (Mus musculus [2]): 4.96 | MED (Mus musculus [3]): 6.03 | MED (Mus musculus [4]): 5.45

COCCC1=C(N2CC2)C(=O)C(CCOC)=C(N2CC2)C1=O
OD (Mus musculus [1]): 5.31 | OD (Mus musculus [2]): 4.71 | MED (Mus musculus [3]): 5.69 | MED (Mus musculus [4]): 5.18

COC(COC(N)=O)C1=C(N2CC2)C(=O)C(C)=C(N2CC2)C1=O (configuration not stated) [CARBOQUONE]
OD (Mus musculus [1]): 5.66 | OD (Mus musculus [2]): 5.03 | MED (Mus musculus [3]): 6.41 | MED (Mus musculus [4]): 5.81

CN(C)CCN1C(=O)CN=C(c2ccccc2)c2cc([N+](=O)[O-])ccc21
Anti-fighting behaviour [5]: 4.25 | Anti-pent effect [6]: 4.7

CN(C)CCCN1C(=O)CN=C(c2ccccc2F)c2cc(Cl)ccc21
Anti-fighting behaviour [5]: 3.97 | Anti-pent effect [6]: 4.76

NC(=O)CN1C(=O)CN=C(c2ccccc2)c2cc(Cl)ccc21
Anti-fighting behaviour [5]: 4.21 | Anti-pent effect [6]: 5.07

CN1C(=O)CN=C(c2ccccc2Cl)c2cc([N+](=O)[O-])ccc21
Anti-fighting behaviour [5]: 5.12 | Anti-pent effect [6]: 6.92

CN1C(=O)CN=C(c2ccccc2F)c2ccccc21
Anti-fighting behaviour [5]: 3.83 | Anti-pent effect [6]: 4.53

O=C1CN=C(c2ccccc2Br)c2cc(Cl)ccc2N1
Anti-fighting behaviour [5]: 4.85 | Anti-pent effect [6]: 5.77

O=C1C=C(N2CC2)C(=O)C(N2CC2)=C1N1CC1 [TRIAZIQUONE]
OD (Mus musculus [1]): 6.19 | OD (Mus musculus [2]): 5.74 | MED (Mus musculus [3]): 6.45 | MED (Mus musculus [4]): 6.02

CC(=O)C1=C(N2CC2)C(=O)C(C)=C(N2CC2)C1=O
OD (Mus musculus [2]): 3.48 | MED (Mus musculus [4]): 3.94

CN(C)CCN1C(=O)CN=C(c2ccccc2)c2cc(Cl)ccc21
Anti-fighting behaviour [5]: 3.53 | Anti-pent effect [6]: 4.73

CN(C)c1ccc2c(c1)C(c1ccccc1)=NCC(=O)N2C
Anti-fighting behaviour [5]: 3.86 | Anti-pent effect [6]: 4.69

O=C1CN=C(c2ccccc2F)c2cc([N+](=O)[O-])ccc2N1
Anti-fighting behaviour [5]: 5.17 | Anti-pent effect [6]: 6

CCCC1=C(N2CC2)C(=O)C(C(COC(N)=O)OC)=C(N2CC2)C1=O (configuration not stated)
OD (Mus musculus [1]): 5.07 | OD (Mus musculus [2]): 4.64 | MED (Mus musculus [3]): 5.63 | MED (Mus musculus [4]): 5.01

C=CCN1C(=O)CN=C(c2ccccc2)c2cc(Cl)ccc21
Anti-fighting behaviour [5]: 4.49 | Anti-pent effect [6]: 5.35

CN(C)CCCN1C(=O)CN=C(c2ccccc2)c2cc([N+](=O)[O-])ccc21
Anti-fighting behaviour [5]: 3.61 and 3.96 | Anti-pent effect [6]: 5.82 and 4.28

CC(=O)CN1C(=O)CN=C(c2ccccc2)c2cc(Cl)ccc21
Anti-fighting behaviour [5]: 4.21 | Anti-pent effect [6]: 5.28

O=C1C(c2ccccc2)=C(N2CC2)C(=O)C(c2ccccc2)=C1N1CC1
OD (Mus musculus [1]): 4.14 | OD (Mus musculus [2]): 3.53 | MED (Mus musculus [3]): 4.33

CSc1ccc2c(c1)C(c1ccccc1)=NCC(=O)N2C
Anti-fighting behaviour [5]: 3.87 | Anti-pent effect [6]: 3.6

O=C1CN=C(c2ccccc2)c2cc([N+](=O)[O-])ccc2N1
Anti-fighting behaviour [5]: 4.75 | Anti-pent effect [6]: 5.6

CCC1=C(N2CC2)C(=O)C(CCOC(N)=O)=C(N2CC2)C1=O
OD (Mus musculus [1]): 5.48 | OD (Mus musculus [2]): 4.88 | MED (Mus musculus [3]): 6.25 | MED (Mus musculus [4]): 5.98

CC1=C(N2CC2)C(=O)C(CCCC2=C(N3CC3)C(=O)C(C)=C(N3CC3)C2=O)=C(N2CC2)C1=O
OD (Mus musculus [1]): 5.39 | MED (Mus musculus [3]): 5.82

CN1C(=O)CN=C(c2ccccc2)c2cc(C#N)ccc21
Anti-fighting behaviour [5]: 4.74 | Anti-pent effect [6]: 5.44

CCN(CC)CCN1C(=O)CN=C(c2ccccc2)c2cc(Cl)ccc21
Anti-fighting behaviour [5]: 3.57 | Anti-pent effect [6]: 5.06

CC(C)C1=C(N2CC2)C(=O)C=C(N2CC2)C1=O
OD (Mus musculus [1]): 5.37 | OD (Mus musculus [2]): 4.59 | MED (Mus musculus [3]): 5.68 | MED (Mus musculus [4]): 5.16

CCC(COC(N)=O)C1=C(N2CC2)C(=O)C(C)=C(N2CC2)C1=O (configuration not stated)
OD (Mus musculus [1]): 5.66 | OD (Mus musculus [2]): 5.2 | MED (Mus musculus [3]): 6.18 | MED (Mus musculus [4]): 6.03

CN1C(=O)CN=C(c2ccccc2)c2cc(Cl)ccc21
Anti-fighting behaviour [5]: 4.45 | Anti-pent effect [6]: 5.31

CN1C(=O)CN=C(c2ccccc2F)c2cc([N+](=O)[O-])ccc21
Anti-fighting behaviour [5]: 5.8 | Anti-pent effect [6]: 6.5

CCCC1=C(N2CC2)C(=O)C(CCOC(N)=O)=C(N2CC2)C1=O
OD (Mus musculus [1]): 5.23 | OD (Mus musculus [2]): 4.42 | MED (Mus musculus [3]): 5.68 | MED (Mus musculus [4]): 4.9

CC(C)C1=C(N2CC2)C(=O)C(C(C)C)=C(N2CC2)C1=O
OD (Mus musculus [1]): 4.59 | OD (Mus musculus [2]): 4.14 | MED (Mus musculus [3]): 4.77 | MED (Mus musculus [4]): 4.36

CN1C(=O)CN=C(c2ccccc2Cl)c2cc(Cl)ccc21
Anti-fighting behaviour [5]: 4.5 | Anti-pent effect [6]: 6.03
